Reference: ChEMBL document CHEMBL5291721, “A preclinical secondary pharmacology resource illuminates target-adverse drug reaction associations of marketed drugs” (Nat Commun, 2023)

What was measured:
[1] = target: Gamma-aminobutyric acid receptor subunit alpha-1 (Rattus norvegicus, UniProt P62813)
Estrogen receptor [2] = target: T1, Estrogen receptor (Homo sapiens, UniProt P03372); type: functional
T1 sequence (P03372 whole entry): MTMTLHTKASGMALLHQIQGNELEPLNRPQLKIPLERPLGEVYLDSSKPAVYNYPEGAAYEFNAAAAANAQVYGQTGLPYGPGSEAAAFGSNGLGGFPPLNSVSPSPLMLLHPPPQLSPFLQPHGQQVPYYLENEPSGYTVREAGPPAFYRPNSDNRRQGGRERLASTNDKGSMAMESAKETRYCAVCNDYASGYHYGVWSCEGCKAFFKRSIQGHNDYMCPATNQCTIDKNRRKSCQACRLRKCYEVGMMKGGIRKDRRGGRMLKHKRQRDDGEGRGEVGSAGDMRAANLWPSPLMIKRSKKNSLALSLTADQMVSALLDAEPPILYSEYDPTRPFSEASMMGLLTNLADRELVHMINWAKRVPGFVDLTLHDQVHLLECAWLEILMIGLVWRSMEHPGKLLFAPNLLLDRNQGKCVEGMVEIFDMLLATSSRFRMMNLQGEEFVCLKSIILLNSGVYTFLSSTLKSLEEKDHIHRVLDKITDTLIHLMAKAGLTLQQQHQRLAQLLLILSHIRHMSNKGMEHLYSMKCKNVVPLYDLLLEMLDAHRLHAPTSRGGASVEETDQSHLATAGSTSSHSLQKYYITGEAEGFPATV

Estrogen receptor [3] = target: T1, Estrogen receptor; type: functional; remark: listed apart in the source
[4] = target: Gamma-aminobutyric acid receptor subunit alpha-1/alpha-2/beta-2/gamma-2 (Homo sapiens, UniProt P14867+P18507+P47869+P47870); type: functional, cell-based
[5] = target: T2, Alpha-1A adrenergic receptor (Homo sapiens, UniProt P35348)
T2 sequence (P35348 whole entry): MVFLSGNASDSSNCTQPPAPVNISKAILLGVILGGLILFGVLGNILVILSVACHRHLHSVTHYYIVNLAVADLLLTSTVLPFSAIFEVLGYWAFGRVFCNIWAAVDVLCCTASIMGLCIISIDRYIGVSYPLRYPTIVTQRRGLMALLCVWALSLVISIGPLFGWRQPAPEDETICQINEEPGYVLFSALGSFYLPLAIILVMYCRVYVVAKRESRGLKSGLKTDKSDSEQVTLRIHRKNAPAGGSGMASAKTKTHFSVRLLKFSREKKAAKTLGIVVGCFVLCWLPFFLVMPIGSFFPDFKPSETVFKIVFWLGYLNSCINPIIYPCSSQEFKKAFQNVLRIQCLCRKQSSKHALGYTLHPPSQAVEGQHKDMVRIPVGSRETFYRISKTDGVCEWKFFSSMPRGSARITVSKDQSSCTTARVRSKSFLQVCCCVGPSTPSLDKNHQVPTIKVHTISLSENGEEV

Estrogen receptor [6] = target: T1, Estrogen receptor
Progesterone receptor = target: T3, Progesterone receptor (Homo sapiens, UniProt P06401)
T3 sequence (P06401 whole entry): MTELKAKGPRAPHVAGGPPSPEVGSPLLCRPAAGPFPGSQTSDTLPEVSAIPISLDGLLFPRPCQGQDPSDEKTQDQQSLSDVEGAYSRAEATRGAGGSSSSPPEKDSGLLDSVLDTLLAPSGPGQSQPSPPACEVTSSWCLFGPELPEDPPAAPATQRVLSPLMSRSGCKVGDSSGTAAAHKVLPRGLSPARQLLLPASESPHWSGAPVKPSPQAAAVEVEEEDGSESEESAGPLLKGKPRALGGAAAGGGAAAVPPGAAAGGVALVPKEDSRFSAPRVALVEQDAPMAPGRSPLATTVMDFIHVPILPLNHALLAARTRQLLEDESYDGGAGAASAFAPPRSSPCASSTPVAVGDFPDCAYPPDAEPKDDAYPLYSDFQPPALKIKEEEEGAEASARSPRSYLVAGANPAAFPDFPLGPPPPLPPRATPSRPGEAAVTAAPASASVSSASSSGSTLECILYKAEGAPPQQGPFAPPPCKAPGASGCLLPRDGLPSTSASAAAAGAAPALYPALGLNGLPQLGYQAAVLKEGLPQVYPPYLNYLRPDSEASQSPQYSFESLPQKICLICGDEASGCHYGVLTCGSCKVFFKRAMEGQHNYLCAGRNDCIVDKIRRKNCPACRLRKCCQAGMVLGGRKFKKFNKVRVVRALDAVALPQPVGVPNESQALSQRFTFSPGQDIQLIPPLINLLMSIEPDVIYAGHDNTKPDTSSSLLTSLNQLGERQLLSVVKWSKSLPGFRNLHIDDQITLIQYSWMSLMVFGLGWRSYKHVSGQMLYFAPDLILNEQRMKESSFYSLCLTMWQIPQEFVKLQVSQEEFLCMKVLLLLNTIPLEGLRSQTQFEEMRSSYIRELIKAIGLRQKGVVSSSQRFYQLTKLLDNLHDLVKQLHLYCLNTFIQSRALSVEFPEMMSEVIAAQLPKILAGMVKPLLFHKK

Substance-P receptor = Substance-P receptor (Homo sapiens, UniProt P25103)
[7] = target: Vascular endothelial growth factor receptor 2 (Homo sapiens, UniProt P35968); type: functional
Further: assay procedure not described here.

Chain of Vascular endothelial growth factor receptor 2 (P35968 whole entry): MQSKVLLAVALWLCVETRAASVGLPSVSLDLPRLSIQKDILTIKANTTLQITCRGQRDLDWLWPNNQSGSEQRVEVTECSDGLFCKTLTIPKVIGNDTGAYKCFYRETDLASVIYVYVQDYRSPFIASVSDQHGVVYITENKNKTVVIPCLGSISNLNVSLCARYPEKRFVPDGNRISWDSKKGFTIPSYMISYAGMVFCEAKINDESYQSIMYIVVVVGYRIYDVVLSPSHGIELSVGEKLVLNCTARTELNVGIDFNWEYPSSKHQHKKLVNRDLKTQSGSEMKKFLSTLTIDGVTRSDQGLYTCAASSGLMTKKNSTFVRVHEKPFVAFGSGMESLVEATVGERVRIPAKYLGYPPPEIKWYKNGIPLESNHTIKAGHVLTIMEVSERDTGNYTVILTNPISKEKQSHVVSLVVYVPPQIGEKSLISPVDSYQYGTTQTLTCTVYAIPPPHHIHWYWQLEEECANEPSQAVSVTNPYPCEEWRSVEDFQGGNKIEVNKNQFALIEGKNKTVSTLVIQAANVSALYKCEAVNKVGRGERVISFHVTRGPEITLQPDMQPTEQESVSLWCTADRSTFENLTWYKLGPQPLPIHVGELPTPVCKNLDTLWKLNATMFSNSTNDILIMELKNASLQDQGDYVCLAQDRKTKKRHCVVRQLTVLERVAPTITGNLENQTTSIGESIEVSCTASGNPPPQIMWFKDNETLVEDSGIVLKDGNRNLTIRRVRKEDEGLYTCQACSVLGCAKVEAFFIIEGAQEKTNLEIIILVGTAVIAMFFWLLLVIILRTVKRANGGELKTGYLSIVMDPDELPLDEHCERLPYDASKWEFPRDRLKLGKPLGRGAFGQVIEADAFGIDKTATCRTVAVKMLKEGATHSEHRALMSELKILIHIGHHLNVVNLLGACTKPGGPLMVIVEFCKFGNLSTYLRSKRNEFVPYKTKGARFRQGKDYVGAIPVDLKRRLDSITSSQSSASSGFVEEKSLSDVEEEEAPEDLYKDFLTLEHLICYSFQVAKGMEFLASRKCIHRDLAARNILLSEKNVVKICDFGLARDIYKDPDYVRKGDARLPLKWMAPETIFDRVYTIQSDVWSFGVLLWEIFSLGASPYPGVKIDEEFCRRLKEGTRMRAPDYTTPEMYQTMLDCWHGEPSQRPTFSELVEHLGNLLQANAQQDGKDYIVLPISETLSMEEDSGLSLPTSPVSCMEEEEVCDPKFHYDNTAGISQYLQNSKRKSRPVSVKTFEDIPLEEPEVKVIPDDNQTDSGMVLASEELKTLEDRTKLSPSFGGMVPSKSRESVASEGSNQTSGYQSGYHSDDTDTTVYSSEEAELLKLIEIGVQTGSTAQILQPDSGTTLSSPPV
Chain of Gamma-aminobutyric acid receptor subunit alpha-1 (P62813 whole entry): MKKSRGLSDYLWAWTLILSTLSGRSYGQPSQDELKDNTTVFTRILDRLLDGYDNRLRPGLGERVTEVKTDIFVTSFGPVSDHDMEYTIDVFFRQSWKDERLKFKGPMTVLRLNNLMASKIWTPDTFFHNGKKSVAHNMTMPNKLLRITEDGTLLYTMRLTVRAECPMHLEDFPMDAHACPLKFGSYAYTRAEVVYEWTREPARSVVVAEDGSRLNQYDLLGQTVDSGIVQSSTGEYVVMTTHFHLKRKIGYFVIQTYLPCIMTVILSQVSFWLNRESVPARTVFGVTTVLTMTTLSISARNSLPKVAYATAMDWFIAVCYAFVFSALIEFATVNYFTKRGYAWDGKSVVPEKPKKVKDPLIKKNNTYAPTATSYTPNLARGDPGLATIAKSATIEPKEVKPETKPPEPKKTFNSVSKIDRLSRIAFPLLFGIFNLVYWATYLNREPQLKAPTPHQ
Chain of Gamma-aminobutyric acid receptor subunit alpha-1/alpha-2/beta-2/gamma-2 (P14867 whole entry): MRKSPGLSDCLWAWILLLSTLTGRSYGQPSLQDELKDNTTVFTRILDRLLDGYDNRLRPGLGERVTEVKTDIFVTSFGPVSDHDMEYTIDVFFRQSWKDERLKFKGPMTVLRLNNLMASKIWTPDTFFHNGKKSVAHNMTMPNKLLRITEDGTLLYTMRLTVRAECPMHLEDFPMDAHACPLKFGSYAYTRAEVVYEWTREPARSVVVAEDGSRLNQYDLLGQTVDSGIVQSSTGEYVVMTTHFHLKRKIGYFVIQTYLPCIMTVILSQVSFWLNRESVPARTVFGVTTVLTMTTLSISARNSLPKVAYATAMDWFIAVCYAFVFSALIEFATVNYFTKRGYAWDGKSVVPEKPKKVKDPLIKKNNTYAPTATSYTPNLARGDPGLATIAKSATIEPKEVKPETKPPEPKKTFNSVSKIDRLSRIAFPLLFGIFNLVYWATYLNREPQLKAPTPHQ
Chain of Gamma-aminobutyric acid receptor subunit alpha-1/alpha-2/beta-2/gamma-2 (P47870 whole entry): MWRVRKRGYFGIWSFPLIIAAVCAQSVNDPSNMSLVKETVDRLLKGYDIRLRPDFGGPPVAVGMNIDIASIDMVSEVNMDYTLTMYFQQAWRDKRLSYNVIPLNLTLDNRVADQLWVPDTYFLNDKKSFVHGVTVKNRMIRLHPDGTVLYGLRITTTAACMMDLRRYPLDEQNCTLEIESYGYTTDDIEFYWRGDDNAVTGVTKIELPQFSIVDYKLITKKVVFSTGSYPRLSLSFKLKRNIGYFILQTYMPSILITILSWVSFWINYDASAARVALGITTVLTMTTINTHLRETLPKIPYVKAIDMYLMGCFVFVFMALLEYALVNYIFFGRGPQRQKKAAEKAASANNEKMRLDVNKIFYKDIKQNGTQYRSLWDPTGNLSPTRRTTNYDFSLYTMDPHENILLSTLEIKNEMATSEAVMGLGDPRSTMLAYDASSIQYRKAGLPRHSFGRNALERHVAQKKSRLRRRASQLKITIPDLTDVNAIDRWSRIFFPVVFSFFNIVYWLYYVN
Chain of Gamma-aminobutyric acid receptor subunit alpha-1/alpha-2/beta-2/gamma-2 (P18507 whole entry): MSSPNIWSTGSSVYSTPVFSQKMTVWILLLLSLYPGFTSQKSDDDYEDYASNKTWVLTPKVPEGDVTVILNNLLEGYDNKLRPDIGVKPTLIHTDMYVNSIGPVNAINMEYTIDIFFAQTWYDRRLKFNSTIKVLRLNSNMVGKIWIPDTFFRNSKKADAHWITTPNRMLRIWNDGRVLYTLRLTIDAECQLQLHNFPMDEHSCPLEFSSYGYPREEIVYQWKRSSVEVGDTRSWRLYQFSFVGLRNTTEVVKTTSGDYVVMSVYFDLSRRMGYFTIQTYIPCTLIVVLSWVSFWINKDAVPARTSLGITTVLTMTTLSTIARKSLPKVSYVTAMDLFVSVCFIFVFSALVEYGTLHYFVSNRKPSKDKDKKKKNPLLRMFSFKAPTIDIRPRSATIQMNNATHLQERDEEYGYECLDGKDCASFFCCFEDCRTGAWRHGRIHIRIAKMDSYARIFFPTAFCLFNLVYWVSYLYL
Chain of Gamma-aminobutyric acid receptor subunit alpha-1/alpha-2/beta-2/gamma-2 (P47869 whole entry): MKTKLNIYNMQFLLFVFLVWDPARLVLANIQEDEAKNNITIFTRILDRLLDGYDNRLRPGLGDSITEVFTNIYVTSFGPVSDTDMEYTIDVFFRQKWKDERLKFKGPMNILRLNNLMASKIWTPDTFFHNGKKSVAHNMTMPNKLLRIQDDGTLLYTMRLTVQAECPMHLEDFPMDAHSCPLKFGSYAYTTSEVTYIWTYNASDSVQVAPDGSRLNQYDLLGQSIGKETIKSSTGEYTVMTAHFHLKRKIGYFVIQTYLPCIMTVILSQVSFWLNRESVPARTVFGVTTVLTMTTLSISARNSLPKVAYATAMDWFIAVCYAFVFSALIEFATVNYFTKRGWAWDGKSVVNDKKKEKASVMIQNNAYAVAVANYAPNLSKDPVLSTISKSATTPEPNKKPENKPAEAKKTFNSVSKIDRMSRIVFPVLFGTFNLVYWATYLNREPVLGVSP
Chain of Substance-P receptor (P25103 whole entry): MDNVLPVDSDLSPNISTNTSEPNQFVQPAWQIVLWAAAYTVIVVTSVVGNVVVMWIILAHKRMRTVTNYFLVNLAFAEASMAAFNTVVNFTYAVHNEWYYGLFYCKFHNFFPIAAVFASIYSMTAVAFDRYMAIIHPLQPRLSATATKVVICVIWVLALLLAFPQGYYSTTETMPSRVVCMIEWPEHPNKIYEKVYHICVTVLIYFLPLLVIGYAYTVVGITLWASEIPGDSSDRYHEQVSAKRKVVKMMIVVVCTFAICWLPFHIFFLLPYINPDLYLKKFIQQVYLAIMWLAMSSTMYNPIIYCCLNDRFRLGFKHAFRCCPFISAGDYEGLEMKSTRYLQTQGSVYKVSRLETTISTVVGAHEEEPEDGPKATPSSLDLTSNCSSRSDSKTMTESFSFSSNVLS

| Compound | AC50 [4] [µM] | AC50 [5] [µM] | AC50 (Estrogen receptor [6]) [µM] | further results |
| --- | --- | --- | --- | --- |
| OC[C@H]1NC[C@H](O)[C@@H](O)[C@H]1O |  |  |  | AC50 [1]: > 30 µM |
| CCOCC(O)COc1ccc(NC(=O)CC[S+](C)C)cc1 (stereo unspecified) | > 30 |  |  | AC50 (Estrogen receptor [2]): > 30 µM; AC50 (Estrogen receptor [3]): > 30 µM |
| CCOC(=O)[C@H](CCc1ccccc1)N[C@@H](C)C(=O)N1Cc2ccccc2C[C@H]1C(=O)O |  | > 10 | > 30 | AC50 [1]: > 30 µM; AC50 (Progesterone receptor): > 30 µM; AC50 (Substance-P receptor): > 10 µM |
| CCC[C@@]1(CCc2ccccc2)CC(O)=C([C@H](CC)c2cccc(NS(=O)(=O)c3ccc(C(F)(F)F)cn3)c2)C(=O)O1 | > 30 |  |  | AC50 [7]: > 30 µM |
| C=CC1=C(C(=O)O)N2C(=O)[C@@H](NC(=O)/C(=N\O)c3csc(N)n3)[C@H]2SC1 |  | > 10 | > 30 | AC50 (Progesterone receptor): > 30 µM |
| O=C(O)COC(=O)Cc1ccccc1Nc1c(Cl)cccc1Cl [ACECLOFENAC] |  | > 10 | > 30 | AC50 (Progesterone receptor): > 30 µM |
| C=CCOc1ccc(CC(=O)O)cc1Cl [ALCLOFENAC] |  |  |  | AC50 [1]: > 30 µM |
| CN(C)CCc1c[nH]c2ccc(CS(=O)(=O)N3CCCC3)cc12 [ALMOTRIPTAN] | > 30 |  | > 30 |  |
| CC[N+](CC)(CCNC(=O)C(=O)NCC[N+](CC)(CC)Cc1ccccc1Cl)Cc1ccccc1Cl [AMBENONIUM] |  |  | > 30 |  |
| NCCCNCCSP(=O)(O)O [AMIFOSTINE] |  |  | > 30 |  |
| NCCCCCC(=O)O [AMINOCAPROIC ACID] |  | > 10 | > 10 |  |
| CN1CC2c3ccccc3Oc3ccc(Cl)cc3C2C1 (stereo unspecified) [ASENAPINE] | > 30 |  |  | AC50 (Estrogen receptor [2]): > 30 µM; AC50 (Estrogen receptor [3]): > 30 µM; AC50 [7]: > 30 µM |
| CC(C)NCC(O)COc1ccc(CC(N)=O)cc1 (stereo unspecified) [ATENOLOL] |  |  | > 30 |  |
| Cn1cnc2c(F)c(Nc3ccc(Br)cc3F)c(C(=O)NOCCO)cc21 [BINIMETINIB] | > 30 |  |  | AC50 (Estrogen receptor [2]): > 30 µM; AC50 (Estrogen receptor [3]): > 30 µM; AC50 [7]: > 30 µM |
| CC(C)C[C@H](NC(=O)[C@H](Cc1ccccc1)NC(=O)c1cnccn1)B(O)O [BORTEZOMIB] |  | > 30 | > 30 |  |
| C[C@H](CS)C(=O)N1CCC[C@H]1C(=O)O [CAPTOPRIL] |  | > 10 |  | AC50 (Progesterone receptor): > 30 µM |
| CN(C)CCOC(c1ccc(Cl)cc1)c1ccccn1 (stereo unspecified) [CARBINOXAMINE] | > 30 |  | > 30 |  |
| CCN(CC)CCn1c(=O)c(Cc2ccc(OC)cc2)nc2ccccc21 [CAROVERINE] |  | 8.9 | > 30 |  |
| C[C@H](CCC(=O)O)[C@H]1CC[C@H]2[C@@H]3[C@H](O)C[C@@H]4C[C@H](O)CC[C@]4(C)[C@H]3CC[C@]12C [CHENODIOL] | > 30 |  |  | AC50 (Estrogen receptor [2]): > 30 µM; AC50 (Estrogen receptor [3]): > 30 µM; AC50 [7]: > 3 µM |
| CN(C)CCCC1(c2ccc(F)cc2)OCc2cc(C#N)ccc21 (stereo unspecified) [CITALOPRAM] |  |  | > 30 | AC50 [1]: > 30 µM; AC50 (Progesterone receptor): > 30 µM; AC50 (Substance-P receptor): > 10 µM |
| O=C(O)[C@H]1/C(=C/CO)O[C@@H]2CC(=O)N21 [CLAVULANIC ACID] | > 30 |  |  | AC50 (Estrogen receptor [2]): > 30 µM; AC50 (Estrogen receptor [3]): > 30 µM |
| CC(C)/N=c1\cc2n(-c3ccc(Cl)cc3)c3ccccc3nc-2cc1Nc1ccc(Cl)cc1 [CLOFAZIMINE] |  |  | 0.13 |  |
| CCCCCCCCCCCCCCCC(=O)OC[C@H](COP(=O)([O-])OCC[N+](C)(C)C)OC(=O)CCCCCCCCCCCCCCC [COLFOSCERIL PALMITATE] |  |  |  | AC50 [1]: > 30 µM |
| C[C@@H](CN1CC(=O)NC(=O)C1)N1CC(=O)NC(=O)C1 [DEXRAZOXANE] |  |  |  | AC50 [1]: > 30 µM |
| COC(=O)CCc1ccc(OCC(O)CNC(C)C)cc1 (stereo unspecified) [ESMOLOL] |  | > 30 |  |  |
